In patent US20250339569A1, “CARBONIC ANHYDRASE IX LIGANDS” (priority 2021, published 2025):
Read-outs that look alike come from different tables or passages of the source. Starred links: 1 amine or outer side, 2 acyl side, 3 side chain; linkers in the order of their positions; H or OH if unused. Positions of bridges follow the written chain, without caps; N, C: chain ends. Non-standard residues stand in square brackets, D forms with d. Residues, ends and D or L forms follow the SMILES beside them. No end group written: not given here. *: point of attachment. NH(1-deoxy-D-glucityl) = OC[C@@H](O)[C@@H](O)[C@H](O)[C@@H](O)CN*; DOTA = O=C(O)CN1CCN(CC(=O)O)CCN(CC(=O)*)CCN(CC(=O)O)CC1; X68 = CC1(C(=O)Nc2cccc(C[C@H](N[*:1])C(=O)[*:2])c2)CC1; Pyridine(3,5-bisCH2) = c1ncc(C[*:2])cc1C[*:1]; mXylylene = c1cc(C[*:1])cc(C[*:2])c1; Orn(Me2) = CN(C)CCC[C@H](N)C(=O)O; Trx = NC[C@H]1CC[C@H](C(=O)O)CC1; X2 = O=C(CN1CCC(N[*:1])CC1)[*:2]; tBuAla = CC(C)(C)C[C@H](N)C(=O)O; X58 = CS(=O)(=O)c1ccc(CN*)cc1; 3Amb = NCc1cccc(C(=O)O)c1; Dap = NC[C@H](N)C(=O)O; AEEA = NCCOCCOCC(=O)O; Aib = CC(C)(N)C(=O)O; Sar = CNCC(=O)O

Target: T1, CAIX-expressing human HT-29 colorectal cancer cells (Homo sapiens, UniProt Q16790)
T1 construct: CAIX-expressing human HT-29 colorectal cancer cells; host or cells: HT-29 human colorectal cancer cells
Experiment: FACS binding assay (IC50 determination, competition with tracer 3BP-2776 or 3BP-4149)
Settings: 4° C., 1 hour; for IC50: read-out: pIC50 category (activity) (converted)
How it was run: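 HT-29 cells in FACS buffer (PBS, 1% FCS) at 500.000 cells/ml were exposed to compounds competing with a labelled tracer, with biotinylated compounds detected by 1 μg/mL APC-streptavidin for 30 min on ice. APC/Cy5 median fluorescence was read by flow cytometry and IC50 derived by 4PL fit.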

[1] = FACS binding assay, HT-29 cells, competition with tracer 3BP-4149 (3 nM, Cy5-labeled)
[2] = FACS competition on HT-29 cells, Tracer ID 3BP-2776 (10 nM, biotin-labeled)
[3] = FACS binding assay, HT-29 cells, competition with tracer 3BP-2776 (10 nM, biotin-labeled)

IC50 [2] [nM] | Compound | further results
 | CC(C)C[C@@H]1NC(=O)[C@H](Cc2c[nH]c3ccccc23)NC(=O)[C@H](CCC(=O)NCc2ccc(S(C)(=O)=O)cc2)NC(=O)[C@H]2CCCN2C(=O)[C@H](CCC(=O)O)NC(=O)[C@@H](NC(=O)[C@H](Cc2ccc(O)cc2)NC(=O)[C@@H](NC(=O)CN2CCC(NC(=O)CN3CCN(CC(=O)O)CCN(CC(=O)O)CCN(CC(=O)O)CC3)CC2)C(C)C)CSCc2cccc(c2)CSC[C@@H](C(N)=O)NC(=O)[C@H](CO)NC(=O)[C@H](Cc2c[nH]c3ccccc23)NC(=O)[C@H]([C@@H](C)O)NC1=O [3BP-4333] ({DOTA}-[X2]VYCE[dP]E(X58)WLTWSC-NH2; linker 4-13 via mXylylene) | IC50 [1]: 10 to 79.4 nM
< 10 | CC(C)C[C@@H]1NC(=O)[C@H](Cc2c[nH]c3ccccc23)NC(=O)[C@H](CC(=O)O)NC(=O)[C@H]2CCCN2C(=O)[C@H](CCC(=O)O)NC(=O)[C@@H](NC(=O)[C@H](Cc2ccc(O)cc2)NC(=O)[C@@H](NC(=O)c2cccc(CNC(=O)CN3CCN(CC(=O)O)CCN(CC(=O)O)CCN(CC(=O)O)CC3)c2)C(C)C)CSCc2cccc(c2)CSC[C@@H](C(N)=O)NC(=O)[C@H](C)NC(=O)[C@H](Cc2c[nH]c3ccccc23)NC(=O)[C@H]([C@@H](C)O)NC1=O [3BP-3429] ({DOTA-3Amb}-VYCE[dP]DWLTWAC-NH2; linker 3-12 via mXylylene) | 
< 10 | CC(=O)N[C@H](C(=O)N[C@@H](CO)C(=O)N[C@H]1CSCc2cccc(c2)CSC[C@@H](C(N)=O)NC(=O)[C@H](CO)NC(=O)[C@H](Cc2c[nH]c3ccccc23)NC(=O)[C@H]([C@@H](C)O)NC(=O)[C@H](CC(C)C)NC(=O)[C@H](Cc2c[nH]c3ccccc23)NC(=O)[C@H](CC(=O)O)NC(=O)[C@H]2CCCN2C(=O)[C@H](CCC(=O)O)NC1=O)C(C)C [3BP-3571] (Ac-VSCE[dP]DWLTWSC-NH2; linker 3-12 via mXylylene) | 
 | CC(C)C[C@@H]1NC(=O)[C@H](Cc2c[nH]c3ccccc23)NC(=O)[C@H](CCCN(C)C)NC(=O)[C@H]2CCCN2C(=O)[C@H](CCC(=O)O)NC(=O)[C@@H](NC(=O)[C@H](Cc2ccc(O)cc2)NC(=O)[C@@H](NC(=O)CN2CCC(NC(=O)CN3CCN(CC(=O)O)CCN(CC(=O)O)CCN(CC(=O)O)CC3)CC2)C(C)C)CSCc2cccc(c2)CSC[C@@H](C(N)=O)NC(=O)[C@H](CO)NC(=O)[C@H](Cc2c[nH]c3ccccc23)NC(=O)[C@H]([C@@H](C)O)NC1=O [3BP-4098] ({DOTA}-[X2]VYCE[dP][Orn(Me2)]WLTWSC-NH2; linker 4-13 via mXylylene) | IC50 [3]: 10 to 79.4 nM
< 10 | CC(C)[C@H](NC(=O)[C@H]1CC[C@H](CNC(=O)CN2CCN(CC(=O)O)CCN(CC(=O)O)CCN(CC(=O)O)CC2)CC1)C(=O)N[C@@H](Cc1ccc(O)cc1)C(=O)N[C@H]1CSCc2cccc(c2)CSC[C@@H](C(N)=O)NC(=O)[C@H](C)NC(=O)[C@H](Cc2c[nH]c3ccccc23)NC(=O)[C@H]([C@@H](C)O)NC(=O)[C@H](CC(C)(C)C)NC(=O)[C@H](Cc2c[nH]c3ccccc23)NC(=O)[C@H](CC(=O)O)NC(=O)[C@H]2CCCN2C(=O)[C@H](CCC(=O)O)NC1=O [3BP-3431] ({DOTA-Trx}-VYCE[dP]DW[tBuAla]TWAC-NH2; linker 3-12 via mXylylene) | 
< 10 | CC(=O)N[C@H](C(=O)N[C@@H](CCCNC(=N)N)C(=O)N[C@H]1CSCc2cccc(c2)CSC[C@@H](C(N)=O)NC(=O)[C@H](CO)NC(=O)[C@H](Cc2c[nH]c3ccccc23)NC(=O)[C@H]([C@@H](C)O)NC(=O)[C@H](CC(C)C)NC(=O)[C@H](Cc2c[nH]c3ccccc23)NC(=O)[C@H](CC(=O)O)NC(=O)[C@H]2CCCN2C(=O)[C@H](CCC(=O)O)NC1=O)C(C)C [3BP-3588] (Ac-VRCE[dP]DWLTWSC-NH2; linker 3-12 via mXylylene) | 
< 10 | CC(=O)N[C@H](C(=O)N[C@@H](Cc1ccc(O)cc1)C(=O)N[C@H]1CSCc2cccc(c2)CSC[C@@H](C(N)=O)NC(=O)[C@H](CCC(N)=O)NC(=O)[C@H](Cc2c[nH]c3ccccc23)NC(=O)[C@H]([C@@H](C)O)NC(=O)[C@H](CC(C)C)NC(=O)[C@H](Cc2c[nH]c3ccccc23)NC(=O)[C@H](CC(=O)O)NC(=O)CN(C)C(=O)[C@H](CCC(=O)O)NC1=O)C(C)C [3BP-3060] (Ac-VYCE[Sar]DWLTWQC-NH2; linker 3-12 via mXylylene) | 
< 10 | CC(=O)N[C@H](C(=O)N[C@@H](Cc1ccc(O)cc1)C(=O)N[C@H]1CSCc2cccc(c2)CSC[C@@H](C(N)=O)NC(=O)[C@H](C)NC(=O)[C@H](Cc2c[nH]c3ccccc23)NC(=O)[C@H]([C@@H](C)O)NC(=O)[C@H](CC(C)(C)C)NC(=O)[C@H](Cc2c[nH]c3ccccc23)NC(=O)[C@H](CC(=O)O)NC(=O)[C@H]2CCCN2C(=O)[C@H](CCC(=O)O)NC1=O)C(C)C [3BP-3490] (Ac-VYCE[dP]DW[tBuAla]TWAC-NH2; linker 3-12 via mXylylene) | 
 | CC(C)C[C@@H]1NC(=O)[C@H](Cc2c[nH]c3ccccc23)NC(=O)[C@H](CC(=O)O)NC(=O)[C@H]2CCCN2C(=O)[C@H](CCC(=O)O)NC(=O)[C@@H]2CSCc3cccc(c3)CSC[C@@H](C(N)=O)NC(=O)[C@H](CNC(=O)C[C@H](NC(=O)COCCOCCNC(=O)CN3CCN(CC(=O)O)CCN(CC(=O)O)CCN(CC(=O)O)CC3)C(=O)N2)NC(=O)[C@H](Cc2c[nH]c3ccccc23)NC(=O)[C@H]([C@@H](C)O)NC1=O [3BP-4262] ({DOTA-AEEA}-DCE[dP]DWLTW[Dap]C-NH2; lactam 1-10; linker 2-11 via mXylylene) | IC50 [1]: 10 to 79.4 nM
100 to 794 | CC(=O)N[C@H](C(=O)N[C@@H](Cc1ccc(O)cc1)C(=O)N[C@H]1CSCc2cccc(c2)CSC[C@@H](C(N)=O)NC(=O)[C@H](CCC(N)=O)NC(=O)[C@H](Cc2c[nH]c3ccccc23)NC(=O)[C@H]([C@@H](C)O)NC(=O)[C@H](C)NC(=O)[C@H](Cc2c[nH]c3ccccc23)NC(=O)[C@H](CC(=O)O)NC(=O)CNC(=O)[C@H](CCC(=O)O)NC1=O)C(C)C [3BP-3055] (Ac-VYCEGDWATWQC-NH2; linker 3-12 via mXylylene) | 
< 10 | CC(C)C[C@@H]1NC(=O)[C@H](Cc2c[nH]c3ccccc23)NC(=O)[C@H](CC(=O)O)NC(=O)[C@H]2CCCN2C(=O)[C@H](CCC(=O)O)NC(=O)[C@@H](NC(=O)[C@H](Cc2ccc(O)cc2)NC(=O)[C@@H](NC(=O)[C@H]2CC[C@H](CNC(=O)CN3CCN(CC(=O)O)CCN(CC(=O)O)CCN(CC(=O)O)CC3)CC2)C(C)C)CSCc2cccc(c2)CSC[C@@H](C(N)=O)NC(=O)[C@H](C)NC(=O)[C@H](Cc2c[nH]c3ccccc23)NC(=O)[C@H]([C@@H](C)O)NC1=O [3BP-3430] ({DOTA-Trx}-VYCE[dP]DWLTWAC-NH2; linker 3-12 via mXylylene) | 
 | 3BP-4178 ([dP]PVYCE[dP]DWLTWSC; linker 5-14 via mXylylene; not fully specified (bridges)) | pIC50 category (activity) [3]: A (pIC50 values >8.0)
 | CC(C)C[C@@H]1NC(=O)[C@H](Cc2cccc(NC(=O)C3(C)CC3)c2)NC(=O)[C@H](CC(=O)O)NC(=O)[C@H]2CCCN2C(=O)[C@H](CCC(=O)O)NC(=O)[C@@H](NC(=O)[C@H](Cc2ccc(O)cc2)NC(=O)[C@@H](NC(=O)CN2CCC(NC(=O)CN3CCN(CC(=O)O)CCN(CC(=O)O)CCN(CC(=O)O)CC3)CC2)C(C)C)CSCc2cccc(c2)CSC[C@@H](C(N)=O)NC(=O)[C@H](CO)NC(=O)[C@H](Cc2c[nH]c3ccccc23)NC(=O)[C@H]([C@@H](C)O)NC1=O [3BP-4234] ({DOTA}-[X2]VYCE[dP]D[X68]LTWSC-NH2; linker 4-13 via mXylylene) | IC50 [3]: < 10 nM
 | CC(C)C[C@@H]1NC(=O)[C@H](Cc2c[nH]c3ccccc23)NC(=O)[C@H](CCC(=O)NC[C@H](O)[C@@H](O)[C@H](O)[C@H](O)CO)NC(=O)[C@H]2CCCN2C(=O)[C@H](CCC(=O)O)NC(=O)[C@@H](NC(=O)[C@H](Cc2ccc(O)cc2)NC(=O)[C@@H](NC(=O)CN2CCC(NC(=O)CN3CCN(CC(=O)O)CCN(CC(=O)O)CCN(CC(=O)O)CC3)CC2)C(C)C)CSCc2cccc(c2)CSC[C@@H](C(N)=O)NC(=O)[C@H](CO)NC(=O)[C@H](Cc2c[nH]c3ccccc23)NC(=O)[C@H]([C@@H](C)O)NC1=O [3BP-4120, DOTA-APAc-Val-Tyr-[Cys(3MeBn)-Glu-pro-Glu(AGLU)-Trp-Leu-Thr-Trp-Ser-Cys]-NH2] ({DOTA}-[X2]VYCE[dP]E(NH(1-deoxy-D-glucityl))WLTWSC-NH2; linker 4-13 via mXylylene) | IC50 [3]: 10 to 79.4 nM
100 to 794 | CC(=O)N[C@H](C(=O)N[C@@H](Cc1ccc(O)cc1)C(=O)N[C@H]1CSCc2cccc(c2)CSC[C@@H](C(N)=O)NC(=O)[C@H](CCC(N)=O)NC(=O)[C@H](Cc2c[nH]c3ccccc23)NC(=O)[C@H]([C@@H](C)O)NC(=O)[C@H](CC(C)C)NC(=O)[C@H](Cc2c[nH]c3ccccc23)NC(=O)C(C)(C)NC(=O)CNC(=O)[C@H](CCC(=O)O)NC1=O)C(C)C [3BP-3061] (Ac-VYCEG[Aib]WLTWQC-NH2; linker 3-12 via mXylylene) | 
 | CC(C)C[C@@H]1NC(=O)[C@H](Cc2c[nH]c3ccccc23)NC(=O)[C@H](CC(=O)O)NC(=O)[C@H]2CCCN2C(=O)[C@H](CCC(=O)O)NC(=O)[C@@H](NC(=O)[C@H](Cc2ccc(O)cc2)NC(=O)[C@@H](NC(=O)CN2CCC(NC(=O)CN3CCN(CC(=O)O)CCN(CC(=O)O)CCN(CC(=O)O)CC3)CC2)C(C)C)CSCc2cncc(c2)CSC[C@@H](C(N)=O)NC(=O)[C@H](CO)NC(=O)[C@H](Cc2c[nH]c3ccccc23)NC(=O)[C@H]([C@@H](C)O)NC1=O [3BP-4141] ({DOTA}-[X2]VYCE[dP]DWLTWSC-NH2; linker 4-13 via Pyridine(3,5-bisCH2)) | IC50 [3]: 100 to 794 nM
